The text below walks through data of patent EP4624482A1, “PYRIMIDOPYRIMIDINONE COMPOUND AND PHARMACEUTICAL COMPOSITION COMPRISING SAME” (Axceso Biopharma Co., Ltd., priority 2022, dated 2024).

The subject of assay [1] is SIRT1. In words: SIRT1 expression in mouse vascular cells. The class given is cell-based.
Assay [2] relates to tyrosine hydroxylase (TH). In words: TH expression in rotenone-treated differentiated SH-SY5Y dopaminergic neurons, western blot. It counts as cell-based, human. As for the experimental part:
To analyze the effect on the expression of tyrosine hydroxylase (TH) and α-synuclein as neuron-specific proteins, western blot was performed.
SH-SY5Y cell line was treated with retinoic acid and 12-O-tetradecanoylphorbol-13-acetate (TPA) to induce differentiation into TH-secreting neurons for 6 days.
Differentiated dopaminergic neurons were lysed in PRO-PREP (Intronbio), a cell lysis solution containing protease inhibitor cocktail (Gendepot), and electrophoresed in 10% SDS polyacrylamide gels at 20 µg/well. Transfer was performed using PVDF (Merck millipore) as a membrane, and tyrosine hydroxylase antibody, α-synuclein antibody (Cell signaling), and β-actin antibody (Santa Cruz) were used for reaction for more than 2 hours. Protein expression was detected by staining with ECL substrate (Biorad) for development and graphed using the image J program.
A general note: Immunoblotting shows a protein as a band on a membrane.

For assay [3], the system named is C57BL/6 mice. The assay is described as follows: In vivo permeability of mouse organs after CLP, Evans blue dye. Particulars: treated at 6 and 16 hours after CLP, Evans blue dye at 18 hours. On the procedure:
Permeability was measured by an in vitro method using cell culture and in vivo method using Evans blue dye. To increase permeability, LPS was used in the in vitro method and CLP treatment was used in the in vivo method.
To measure permeability by an in vivo method, the compound of formula (1a-1) was treated at 6 and 16 hours after CLP treatment in the same manner as in Experimental Example 7 above, and 200 µl of a 0.5% Evans blue dye (EBD) solution was administered intravenously at 18 hours, circulated for 1 hour, and organs were harvested to visually confirm the presence of dye. The organs were then homogenized in a homogenizer to extract the dye at 55 °C for 48 hours, and permeability was determined by measuring absorbance at 620 nm.

In assay [4] the test system is dopamine transporter (DAT). In words: Differentiation of pluripotent stem cells into dopaminergic neurons: DAT. It counts as cell-based. Particulars: western blot of 5-week differentiation sample. On the procedure:
(§1) Pluripotent stem cells were seeded in AggreWell plates (stemcell) at 5,000 cells/microwell and cultured for 5 days in E6 medium (GIBCO) to induce embryonic body (EB) formation. For neural rosette formation, EBs were seeded into 35 mm dishes in groups of 30 and cultured for 10 days in N2bF medium. The 35 mm dishes were used after being coated with 15 µg/ml of poly-L-ornithine (sigma) and 1 µg/ml of fibronectin (sigma). The N2Bf medium composition was DMEM/F12 (GIBCO), N2 supplement (stemcell) 1×, 10% NEAA (GIBCO), 55 µM betaMercaptoethanol (GIBCO), bFGF (peprotech) 20 ng/ml. For the formation of spherical neural masses (SNMs), rosette masses were sliced and cultured in petri dishes with N2bF medium. SNMs were no larger than 500 µM in size and were sliced and cultured for 3 to 4 passages. After subculture of SNM, the clumps were broken into small pieces using a tungsten mesh (Nilaco) for the neural progenitor cell (NPC) culture step, and then attached to a PLO/FN-coated dish and cultured in N2bF medium. To differentiate NPCs into dopaminergic neurons, the medium was replaced with an ITS-B27 medium after 2 days of NPC culture. […]
(§2) The effect of the compound of formula (1a-1) on differentiation into neurons was evaluated by comparing the expression of tyrosine hydroxylase (TH) and dopamine transporter (DAT) depending on the presence or absence of treatment with the compound of formula (1a-1).

In assay [5] the test system is IL-6. The assay is described as follows: Serum IL-6 after CLP treatment, ELISA. The class given is in vivo, mouse. To be noted: treated at 6 and 16 hours after CLP, serum at 18 hours. As for the experimental part:
After CLP treatment, the inflammatory cytokines TNF-α and IL-6 were analyzed by ELISA.
Specifically, after treating the compound of formula (1a-1) at 6 and 16 hours after CLP treatment, mouse blood was collected at 18 hours and allowed to stand at room temperature for 1 hour, then centrifuged at 3000 rpm for 10 minutes to obtain serum to analyze the amount of TNF-α and IL-6.
Background: In an ELISA, binding on a coated surface is turned into a signal by an enzyme label.

Assay [6] relates to tyrosine hydroxylase (TH). In words: Differentiation of pluripotent stem cells into dopaminergic neurons: TH expression. It counts as cell-based. On the procedure: as §1, with “culture. The ITS-B27 medium composition was DMEM/F12 (GIBCO), D-(+)-glucose (sigma) 1.5 mg/ml, insulin (wako) 5 µg/ml, transferrin (wako) 50 µg/ml, selenite (sigma) 30 nM, GlutaMAX (GIBCO) 2.5%, and B27 (GIBCO) 1×. After 4 days of NPC culture, 200 ng/ml of Sonic Hedgehog and 100 ng/ml of FGF8 (peprotech) were added to the ITS-B27 medium. After 6 days of NPC culture, 200 ng/ml of Sonic Hedgehog, 20 ng/ml of GDNF, 20 ng/ml of BDNF (peprotech), 200 µM of ascorbic acid, and 500 µM of cAMP (sigma) were added to the ITS-B27 medium and cultured for approximately 5 weeks. The compound of formula (1a-1) was treated starting from the stage 2 days after NPC culture.” for “culture.”
as §2

Assay [7] concerns C57BL/6 mice. The assay is described as follows: Acute respiratory distress syndrome induced by CLP: lung histology, lung injury score, wet-to-dry weight ratio. Particulars: treated at 6 and 16 hours after CLP, lungs harvested at 18 hours. It counts as in vivo. As for the experimental part:
CLP induces pulmonary edema due to increased inflammation and disruption of the vascular barrier, resulting in acute respiratory distress syndrome (ARDS). To determine the effect on ARDS, the compound of formula (1a-1) was treated at 6 and 16 hours after CLP treatment in the same manner as in Experimental Example 7 above, the lungs of mice were harvested at 18 hours for histological analysis, and the wet-to-dry weight ratio of the lungs was obtained. For comparison, mice without CLP treatment served as a control group.
For histologic analysis, the harvested lungs were fixed in 10% paraformaldehyde, infiltrated with paraffin, sectioned into 5 µm-thick tissues, and then de-paraffinized with xylene. Sectioned tissues were mounted on slides, stained with H&E, and observed under an optical microscope. In addition, the lung tissue damage was evaluated by histological score to obtain the lung injury score (LIS) for each group.
To calculate the wet-to-dry weight ratio, lung organs were harvested 18 hours after CLP treatment, and the wet weight was measured immediately after harvesting, and the dry weight was measured after drying in an oven at 60°C for 48 hours to calculate the wet-to-dry weight ratio. The wet-to-dry weight ratio is used as an indicator of organ edema formation.

For the molecule `CCCCCCCCCCCCCC[C@H]1OP(=O)(O)O[C@H]1[C@@H](N)CO.Cl` [formula (1a-1), (4S,5R)-4-((S)-1-amino-2-hydroxyethyl)-2-hydroxy-5-tetradecyl-1,3,2-dioxaphosphoran-2-oxide hydrochloride], the “concentration of maximum expression (SIRT1)” value in assay [1] came out at 100 ng/mL. For the same molecule, the “effectiveness on TH and α-synuclein expression compared with control drug” value in assay [2] is listed as “more effective than resveratrol”. Also, the “expression of TH decreased by rotenone” value in assay [2] (differentiated dopaminergic neurons treated with rotenone) is listed as “restored”. In addition, the “amount of EBD in each organ” value in assay [3] is “returns to normal”. Further, in assay [4], the DAT glycosylation entry is “increased”. The “amount of inflammatory cytokine IL-6” value in assay [5] is “significantly decreased”. Moreover, the “TH expression at early time” value in assay [6] (3 weeks of treatment, normally increases after more than 5 weeks of differentiation) was “elevated”. The “expression of TH” value in assay [6] (cell fluorescence immunostaining) is given as “increased”. For the same molecule, the TH expression result in assay [6] (western blot of 5-week differentiation sample) is “increased”. In addition, in assay [7], the lung injury score result is listed as “almost restores the lung injury score to normal”; the “lung tissue (optical microscope, H&E)” value was “almost restored to normal”; the “wet-to-dry weight ratio of the lung” value is “restores the wet-to-dry weight ratio of the lung to normal”.
